According to PubChem BioAssay AID449750 (Broad Institute, 2010):
Values joined by “and” are separate entries in the source; they are usually repeats but may differ in a detail not shown here. Equal entries are not always repeated. Active and inactive are the calls of the source. How the calls were made is not given here.

Assay: non-covalent RecA intein splicing inhibitors, dose response, biochemical, cell-free, fluorescence, secondary screen (AID 449750)

Row | Structure (SMILES) | AC50
1 | COC(=O)c1cc(C)nc2c1C(=O)C(=O)C=C2N1CCOCC1 | 1.16 µM
2 | CCCNC1=C(N(C(C)=O)c2cccc(F)c2)C(=O)c2ccccc2C1=O | 3.72 µM
3 | CCCc1[nH]nc2c1C(c1ccc(OCCN3CCOCC3)c(OC)c1)C(C#N)=C(N)O2 (stereo unspecified) | > 38 µM (inactive)
4 | CS(=O)(=O)c1ccc(C(=O)OCC(=O)NC23CC4CC(CC(C4)C2)C3)cc1[N+](=O)[O-] | > 38 µM (inactive)
5 | COc1ccc(Cc2nccc3cc(OC)c(OC)cc23)cc1OC | > 38 µM (inactive)
6 | Cc1nc2ccccc2c2c1C(=O)N(C(C)C)C2=O | > 38 µM (inactive)
7 | COc1ccc(Br)cc1[C@H]1[C@@H]2C=CCC[C@@]2(C)C(=O)N1Cc1ccccc1 | > 38 µM (inactive)
8 | O=C1C(Cl)=C(NS(=O)(=O)c2ccc([N+](=O)[O-])cc2)C(=O)c2ccccc21 | 10.3 µM
9 | O=c1[nH]cc(O)c(=O)[nH]1 | 7.38 µM
10 | Cc1cc(C)c(S(C)(=O)=O)c(Oc2cccc(C(F)(F)F)c2)n1 | > 38 µM (inactive)
11 | Cc1ccc(SCc2[nH]nc3c2C2(CCSCC2)C(C#N)=C(N)O3)cc1 | 30.4 µM
12 | Cc1ccc(-c2csc(NC(=O)CSC3=NCCS3)n2)cc1 | 19.1 µM
13 | O=C(Oc1ccc(-c2nnco2)cc1)c1ccco1 | > 38 µM (inactive)
14 | O=[N+]([O-])c1c(NCCO)cc(Sc2nc3ccccc3s2)c2nonc12 | 32.3 µM
15 | CNC(=O)c1nnsc1S(=O)c1ccc(Cl)cc1 (stereo unspecified) | > 38 µM (inactive)
16 | CCCCCCCCCCOC(=O)Cn1c(COc2ccccc2C)[n+](C)c2ccccc21 | 6.93 µM
17 | Cn1nc(-c2ccc(Cl)cc2)nc2c(=O)n(C)c(=O)nc1-2 | 0.0579 µM
18 | COc1ccc(CN(C(=O)CSc2nnc(-c3ccccc3C)o2)c2ccc(F)cc2)cc1 | 21.9 µM
19 | O=C(CCl)Oc1ccc2occ(C(=O)c3cccs3)c2c1 | > 38 µM (inactive)
20 | COC(=O)CSc1nc2sc3c(c2c(=O)n1C1CCCCC1)CCN(C)C3 | > 38 µM (inactive)
21 | Cc1ccc(-c2nnc(Sc3nc4ccccc4o3)c3ccccc23)cc1 | 4.13 µM
22 | Cc1cc(C)c(C#N)c(SCc2[nH]nc3c2C(c2ccc(F)cc2)C(C#N)=C(N)O3)n1 (stereo unspecified) | 29.2 µM

Row | Structure (SMILES) | AC50
23 | Cc1cc(Sc2nnc(/N=C/N(C)C)s2)c2ccccc2n1 | > 38 µM (inactive)
24 | CCCc1[nH]nc2c1C(c1ccncc1)C(C#N)=C(N)O2 (stereo unspecified) | > 38 µM (inactive)
25 | O=C(CCl)N(Cc1cccc([N+](=O)[O-])c1)c1cccc(Cl)c1 | 2.77 µM
26 | O=[N+]([O-])c1ccc(Sc2cccc[n+]2[O-])c2nonc12 | 9.27 µM
27 | N#CCn1c(CCl)nc2ccccc2c1=O | > 38 µM (inactive)
28 | O=C(NC1=C(Nc2ccc(Cl)cc2)C(=O)c2ccccc2C1=O)c1ccccc1 | 34.4 µM
29 | O=C(O)c1ccc(NC2=C(Cl)C(=O)c3ccccc3C2=O)cc1 | 3.91 µM
30 | CC1(C)CC2(C)OC(=N)C1(C#N)C2(C#N)C#N (stereo unspecified) | > 38 µM (inactive)
31 | O=C(Nc1ccccc1)NN(C(=O)CCl)c1ccccc1 | 6.12 µM
32 | N=c1c2c(-c3ccccc3)c(-c3ccccc3)n(Cc3ccco3)c2ncn1Cc1ccccc1 | 5.8 µM
33 | O=C1C(Br)=Cc2cccc3cccc1c23 | > 38 µM (inactive)
34 | COc1cc(C=C2C(=O)c3ccccc3C2=O)ccc1O | > 38 µM (inactive)
35 | CNc1ccc2nc3ccccc3[n+](C)c2c1 | 11.3 µM
36 | CN(CC(=O)Nc1ccc(N2CCOCC2)cc1)CC(=O)Nc1cccc(C#N)c1 | > 38 µM (inactive)
37 | O=C(NNC(=O)c1ccc([N+](=O)[O-])o1)c1ccccc1 | 33.6 µM
38 | O=c1cc(-c2ccccc2)[nH][nH]1 | 12.8 µM
39 | COCc1[nH]nc2c1C(c1ccsc1)C(C#N)=C(N)O2 (stereo unspecified) | 35.3 µM
40 | Cc1[nH][nH]c(=O)c1C(c1ccc(-c2ccc(F)cc2)o1)c1c(C)[nH][nH]c1=O | 3.95 µM
41 | CCOC(=O)C1(CCOc2ccccc2)CCN(Cc2ccc(O)c(Cl)c2)CC1 | > 38 µM (inactive)
42 | O=C1C=C(NCc2ccccc2)c2ccccc2C1=O | 5.91 µM
43 | COc1cc(NCCCCCCCN)c2ncccc2c1 | 13.6 µM
44 | CC1CCCN(C(=O)COc2ccc(NC(=O)c3cccs3)cc2)C1 (stereo unspecified) | > 38 µM (inactive)

Row | Structure (SMILES) | AC50
45 | O=C(CS(=O)c1ccc(C(F)(F)F)cc1[N+](=O)[O-])Oc1ccccc1 (stereo unspecified) | > 38 µM (inactive)
46 | COc1ccccc1-c1cc(C(F)(F)F)nc(S(=O)(=O)CCCC(=O)NCc2ccc(F)cc2)n1 | 6.03 µM
47 | CCOC(=O)c1nn(-c2ccccc2C)c(=O)c2c(N)scc12 | > 38 µM (inactive)
48 | O=C(c1c[nH]c(C(=O)C(Cl)(Cl)Cl)c1)c1ccccc1Cl | 24.9 µM
49 | CCC(=O)Oc1ccc(C(=O)Nc2cccc(C(=O)c3ccccc3)c2)cc1 | 32.8 µM
50 | Cc1[nH][nH]c(=O)c1C(c1ccc(F)cc1)c1c(C)[nH][nH]c1=O | 11.9 µM
51 | C=CCc1cccc(C=Nc2c[nH]c(=O)[nH]c2=O)c1O | > 38 µM (inactive)
52 | O=c1cc(-c2ccccc2)[nH]n1-c1ccc([N+](=O)[O-])cc1 | 13.1 µM
53 | CCOC(=O)c1nnc(-c2cccs2)nc1Oc1ccc(Cl)cc1 | > 38 µM (inactive)
54 | Cc1ccc(N(CCC#N)C(=O)CCl)cc1C | 11.5 µM
55 | CCOc1ccc(-n2c(C)cc(C(=O)CCl)c2C)cc1 | 9.25 µM
56 | CCOc1ccc(CN2CCN(CC3=Cc4cccc(OC)c4OC3)CC2CCO)cc1 (stereo unspecified) | > 38 µM (inactive)
57 | CCOC(=O)C1Nc2c(F)cc(C)cc2C2c3ccccc3CC12 (stereo unspecified) | 33.7 µM
58 | CCN(Cc1ccccc1)S(=O)(=O)c1ccc(C(=O)N(CCCN(C)C)c2nc3cc(C)cc(C)c3s2)cc1 | 15.1 µM
59 | Cc1ccc(SCc2[nH]nc3c2C(c2ccco2)C(C#N)=C(N)O3)cc1 (stereo unspecified) | 14.8 µM
60 | COc1ccccc1/C=C1/C(=O)N(c2ccccc2)N=C1C | > 38 µM (inactive)
61 | O=C(COC(=O)C1CC(=O)N(Cc2ccco2)C1)c1ccc(OC(=O)c2ccco2)cc1 (stereo unspecified) | > 38 µM (inactive)
62 | O=C(Cc1cc(=O)[nH][nH]1)N/N=C/c1c(Cl)cccc1Cl | 16 µM and 23.9 µM
63 | CC(C)Cn1c(C(C)C)nc([N+](=O)[O-])c1S(=O)(=O)c1ccc(F)cc1 | > 38 µM (inactive)
64 | CCc1nnc(NC(=O)c2nc(S(=O)(=O)Cc3cccc(C)c3)ncc2Cl)s1 | > 38 µM (inactive)
65 | Cc1nc(Nc2ccc(O)cc2)c2c3c(sc2n1)CCCC3 | > 38 µM (inactive)
66 | CCCC(=O)OCCNc1cc(Sc2nccn2C)c2nonc2c1[N+](=O)[O-] | > 38 µM (inactive)

Row | Structure (SMILES) | AC50
67 | Cc1onc(-c2ccccc2)c1-c1nc2cc(Cl)ccc2c(=O)o1 | > 38 µM (inactive)
68 | CC(/C=C1\SC(=S)N(NC(=O)c2cccc(O)c2)C1=O)=C\c1ccccc1 | 20.9 µM
69 | CCCCn1c(NC(=O)c2ccc(Br)o2)c(S(=O)(=O)c2ccccc2)c2nc3ccccc3nc21 | > 38 µM (inactive)
70 | CCOC(=O)C1=C(c2ccccc2)NC(N)=NC1c1ccc(OCc2ccc(C(=O)OC)cc2)cc1 (stereo unspecified) | 9.55 µM
71 | O=C(Oc1ccc2ccccc2c1)c1ccco1 | > 38 µM (inactive)
72 | Cc1oc2c(c1C(=O)N1CCOCC1)C(=O)c1ccccc1C2=O | 9.55 µM
73 | O=C(c1c[nH]c(C(=O)C(Cl)(Cl)Cl)c1)c1ccc(F)cc1Cl | 30.1 µM
74 | C/C(CC(=O)NCc1ccco1)=N\NC(=O)c1ccc([N+](=O)[O-])cc1Cl | > 38 µM (inactive)
75 | CSc1nc(-c2ccc(Cl)cc2)nn1C(=O)c1ccco1 | > 38 µM (inactive)
76 | Cc1cc[n+](C2=C([O-])c3ccccc3C(=O)/C2=N\S(=O)(=O)c2cccs2)cc1C | 4.29 µM
77 | COc1ccc(S(=O)(=O)/N=C2\C=C(NS(=O)(=O)c3ccccc3)C(=O)c3ccccc32)cc1 | 2.95 µM
78 | Cc1cc(-c2ccccc2)nc2cc(C(=O)N(Cc3ccccc3)Cc3ccccc3)nn12 | 18.8 µM
79 | Cc1cc(C(=O)N/N=C/c2c(C)[nH]n(-c3ccccc3)c2=O)n[nH]1 | 3.74 µM
80 | Cc1c(OCC(=O)Nc2cccnc2)ccc2c3c(c(=O)oc12)CCC3 | > 38 µM (inactive)
81 | CC(=O)Oc1cc2c(cc1Cl)C1(CC(c3ccccc3Cl)O2)CC(C)(C)NC(=S)N1 (stereo unspecified) | 23.8 µM
82 | O=[N+]([O-])c1cc(-c2ccc(C(=S)N3CCOCC3)o2)ccc1Cl | 18.4 µM
83 | CC(=O)N(CCC(Cc1ccccc1)c1ccc2c(c1)OCO2)Cc1ccccc1F (stereo unspecified) | 3.99 µM
84 | CCOC(=O)CC1=NN(c2ccccc2)C(=O)/C1=C\c1ccc(OC)cc1OC | 2.34 µM
85 | CCCC(=O)OCCNc1cc(Sc2nc3ccccc3[nH]2)c2nonc2c1[N+](=O)[O-] | > 38 µM (inactive)
86 | O=C1C=C(Nc2ccccc2)c2ccccc2C1=O | 5.18 µM
87 | COC(=O)C(C#N)C(c1cccnc1)c1c(C)[nH][nH]c1=O (stereo unspecified) | > 38 µM (inactive)
88 | COCc1[nH]nc2c1C(c1ccc(OC)cc1)C(C#N)=C(N)O2 (stereo unspecified) | 32.2 µM

Row | Structure (SMILES) | AC50
89 | Cc1ccc(CNC(=O)c2ccc(N(C)S(=O)(=O)c3ccccc3)cc2)cc1 | > 38 µM (inactive)
90 | CCC(CNc1cc(OC)cc2cccnc12)NC1CCCCC1 (stereo unspecified) | 6.86 µM
91 | CC(C)(C)c1cc(C(c2cccnc2)N2CCN(CCO)CC2)cc(C(C)(C)C)c1O (stereo unspecified) | 17.7 µM
92 | CCOC(=O)/C=c1\s/c(=C(\C#N)C(N)=O)n(-c2ccccc2)c1=O | > 38 µM (inactive)
93 | CC1(C)N=C(SCC(=O)Nc2ccc(Cl)cc2)C(c2ccc(Cl)cc2)=N1 | 29.8 µM
94 | CCC(C)Nc1nc(Cl)nc(N(C#N)CN2C(=O)c3ccccc3S2(=O)=O)n1 (stereo unspecified) | > 38 µM (inactive)
95 | O=C1c2ccccc2-c2onc3ccc(N4CCCC4)c1c23 | > 38 µM (inactive)
96 | CC(C)CCn1c(Sc2nc3ccccc3o2)nc2c1c(=O)[nH]c(=O)n2C | 5.08 µM
97 | Cc1cc(=O)n(-c2ccc(O)cc2)[nH]1 | 7.46 µM
98 | COc1ccc(C(=O)c2c(C(F)(F)F)oc3c2C(=O)c2ccccc2C3=O)cc1 | 0.93 µM
99 | CC1=NN(c2ccc(Cl)cc2)C(=O)C1C(c1cccc(O)c1)c1c(C)[nH]n(-c2ccc(Cl)cc2)c1=O (stereo unspecified) | 7.91 µM
100 | COc1cccc(-n2nnnc2S(C)(=O)=O)c1 | > 38 µM (inactive)
101 | O=C(CCl)Nc1ccc(N=Nc2ccccc2)cc1 | 4.64 µM
102 | O=C(N/N=C/c1ccc([N+](=O)[O-])o1)c1ccc(O)cc1 | > 38 µM (inactive)
103 | Cc1ccc(NC(=O)c2cnc(SCC(=O)NCC3CCCO3)n(C)c2=O)cc1 (stereo unspecified) | > 38 µM (inactive)
104 | Cc1ccc(CN=Cc2[nH]c3ccc(Br)c(Cl)c3c2O)cc1 | 22.9 µM
105 | COC(=O)CSc1nc(N)c2c3c(sc2n1)C(c1ccccc1)SC(c1ccccc1)C3 (stereo unspecified) | > 38 µM (inactive)
106 | CCC(C)N(CC(=O)Nc1cccc(C)c1C)C(=O)CCl (stereo unspecified) | 30.2 µM
